From US9302999B2, “Substituted triazoles as herbicides” (E. I. DU PONT DE NEMOURS AND COMPANY, priority 2012, dated 2016)

Experiments:
Assay type in all cases: in vivo
rice (Oryza sativa) = experiment: Test B flooded paddy: rice; conditions: Flood, applied to paddy water at 2-leaf stage, visually evaluated after 13 to 15 days
How it was run: (§1)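 Visual ratings on a 0–100 scale, where 0 means no effect and 100 means complete control, were assigned by comparison with controls 13 to 15 days after treatment. Compounds went into paddy water over 2-leaf plants flooded to 3 cm.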

[1] = system: barnyardgrass (Echinochloa crus-galli); experiment: Test B flooded paddy: barnyardgrass; conditions: Flood, applied to paddy water at 2-leaf stage, visually evaluated after 13 to 15 days
How it was run: as §1

[2] = system: wheat (Triticum aestivum); experiment: Test A pre-/postemergence: wheat
How it was run: (§2)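 Injury was scored visually on a 0 (no effect) to 100 (complete control) scale versus untreated controls roughly ten days after treatment in the greenhouse. Compounds, formulated in surfactant-containing non-phytotoxic solvent, went on as soil-directed preemergence spray or postemergence to one- to two-leaf plants 2–10 cm tall.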

[3] = system: ducksalad (Heteranthera limosa); experiment: Test B flooded paddy: ducksalad; conditions: Flood, applied to paddy water at 2-leaf stage, visually evaluated after 13 to 15 days
How it was run: as §1

[4] = system: sedge, umbrella (small-flower umbrella sedge Cyperus difformis); experiment: Test B flooded paddy: sedge, umbrella; conditions: Flood, applied to paddy water at 2-leaf stage, visually evaluated after 13 to 15 days
How it was run: as §1

[5] = system: barnyardgrass (Echinochloa crus-galli); experiment: Test A pre-/postemergence: barnyardgrass
How it was run: as §2

[6] = system: morningglory (Ipomoea spp.); experiment: Test A pre-/postemergence: morningglory
How it was run: as §2

corn (Zea mays) = experiment: Test A pre-/postemergence: corn
How it was run: as §2

[7] = system: crabgrass, large (large crabgrass, Digitaria sanguinalis); experiment: Test A pre-/postemergence: crabgrass, large
How it was run: as §2

[8] = system: foxtail, giant (giant foxtail, Setaria faberii); experiment: Test A pre-/postemergence: foxtail, giant
How it was run: as §2

[9] = system: pigweed (Amaranthus retroflexus); experiment: Test A pre-/postemergence: pigweed
How it was run: as §2

[10] = system: velvetleaf (Abutilon theophrasti); experiment: Test A pre-/postemergence: velvetleaf
How it was run: as §2

[11] = Postemergence, 125 g ai/ha, 0 to 100 scale, 0 is no effect, 100 is complete control
[12] = Postemergence, 500 g ai/ha, 0 to 100 scale, 0 is no effect, 100 is complete control
[13] = Preemergence, 125 g ai/ha, 0 to 100 scale where 0 is no effect and 100 is complete control
[14] = Preemergence, 500 g ai/ha, 0 to 100 scale (0 no effect, 100 complete control)

| SMILES | Plant response rating, Wheat [2, 11] | Wheat plant response rating [2, 12] | Plant response rating, Wheat [2, 13] | Plant response rating, Wheat [2, 14] | Plant response rating, Barnyardgrass [5, 11] | Barnyardgrass plant response rating [5, 12] | Plant response rating, Barnyardgrass [5, 13] | Plant response rating, Barnyardgrass [5, 14] | Plant response rating, Morningglory [6, 11] | Morningglory plant response rating [6, 12] | Plant response rating, Morningglory [6, 13] | Plant response rating, Morningglory [6, 14] | Plant response rating, Corn (corn (Zea mays); [11]) | Corn plant response rating (corn (Zea mays); [12]) | Plant response rating, Corn (corn (Zea mays); [13]) | Plant response rating, Corn (corn (Zea mays); [14]) | Plant response rating, Crabgrass, Large [7, 11] | Crabgrass, Large plant response rating [7, 12] | Plant response rating, Crabgrass, Large [7, 13] | Plant response rating, Crabgrass, Large [7, 14] | also measured |
| --- | --- | --- | --- | --- | --- | --- | --- | --- | --- | --- | --- | --- | --- | --- | --- | --- | --- | --- | --- | --- | --- |
| CCCCc1nn(-c2ccc(C(F)(F)F)cc2)nc1Oc1ccnc(C(F)(F)F)c1 [Compound 184] | 10 | 20 | 0 | 0 | 10 | 30 | 0 | 50 | 30 | 100 | 0 | 10 | 10 | 20 | 0 | 0 | 50 | 90 | 70 | 100 | Plant response rating, Rice (0 to 100 scale, 0 is no effect, 100 is complete control) (rice (Oryza sativa); 250 g ai/ha): 25; Plant response rating, Barnyardgrass (0 to 100 scale, 0 is no effect, 100 is complete control) ([1]; 250 g ai/ha): 25; Plant response rating, Ducksalad (0 to 100 scale, 0 is no effect, 100 is complete control) ([3]; 250 g ai/ha): 0; Plant response rating, Sedge, Umbrella (0 to 100 scale, 0 is no effect, 100 is complete control) ([4]; 250 g ai/ha): 60; Plant response rating, Foxtail, Giant [8, 11]: 30; Foxtail, Giant plant response rating [8, 12]: 80; Plant response rating, Foxtail, Giant [8, 13]: 70; Plant response rating, Foxtail, Giant [8, 14]: 90; Plant response rating, Pigweed [9, 11]: 100; Pigweed plant response rating [9, 12]: 100; Plant response rating, Pigweed [9, 13]: 90; Plant response rating, Pigweed [9, 14]: 100; Plant response rating, Velvetleaf [10, 11]: 40; Velvetleaf plant response rating [10, 12]: 90; Plant response rating, Velvetleaf [10, 13]: 0; Plant response rating, Velvetleaf [10, 14]: 30 |
| CCOc1nn(-c2ccc(F)cc2F)nc1Cc1ccnc(C(F)(F)F)c1 [Compound 190] | 70 | 100 | 60 | 80 | 100 | 100 | 100 | 100 | 100 | 100 | 80 | 80 | 60 | 90 | 30 | 90 | 100 | 100 | 100 | 100 | Plant response rating, Rice (0 to 100 scale, 0 is no effect, 100 is complete control) (rice (Oryza sativa); 125 g ai/ha): 50; Plant response rating, Barnyardgrass (0 to 100 scale, 0 is no effect, 100 is complete control) ([1]; 125 g ai/ha): 70; Plant response rating, Ducksalad (0 to 100 scale, 0 is no effect, 100 is complete control) ([3]; 125 g ai/ha): 70; Plant response rating, Sedge, Umbrella (0 to 100 scale, 0 is no effect, 100 is complete control) ([4]; 125 g ai/ha): 95; Plant response rating, Foxtail, Giant [8, 11]: 100; Foxtail, Giant plant response rating [8, 12]: 100; Plant response rating, Foxtail, Giant [8, 13]: 100; Plant response rating, Foxtail, Giant [8, 14]: 100; Plant response rating, Pigweed [9, 11]: 100; Pigweed plant response rating [9, 12]: 100; Plant response rating, Pigweed [9, 13]: 100; Plant response rating, Pigweed [9, 14]: 100; Plant response rating, Velvetleaf [10, 11]: 100; Velvetleaf plant response rating [10, 12]: 100; Plant response rating, Velvetleaf [10, 13]: 40; Plant response rating, Velvetleaf [10, 14]: 100 |
| CCCOc1nn(-c2ccc(C(F)(F)F)cc2)nc1Cc1ccnc(C(F)(F)F)c1 [Compound 191] | 70 | 80 | 40 | 70 | 60 | 100 | 90 | 100 | 100 | 100 | 20 | 30 | 30 | 80 | 20 | 60 | 90 | 100 | 100 | 100 | Plant response rating, Rice (0 to 100 scale, 0 is no effect, 100 is complete control) (rice (Oryza sativa); 125 g ai/ha): 50; Plant response rating, Barnyardgrass (0 to 100 scale, 0 is no effect, 100 is complete control) ([1]; 125 g ai/ha): 50; Plant response rating, Ducksalad (0 to 100 scale, 0 is no effect, 100 is complete control) ([3]; 125 g ai/ha): 20; Plant response rating, Sedge, Umbrella (0 to 100 scale, 0 is no effect, 100 is complete control) ([4]; 125 g ai/ha): 50; Plant response rating, Foxtail, Giant [8, 11]: 90; Foxtail, Giant plant response rating [8, 12]: 100; Plant response rating, Foxtail, Giant [8, 13]: 100; Plant response rating, Foxtail, Giant [8, 14]: 100; Plant response rating, Pigweed [9, 11]: 100; Pigweed plant response rating [9, 12]: 100; Plant response rating, Pigweed [9, 13]: 100; Plant response rating, Pigweed [9, 14]: 100; Plant response rating, Velvetleaf [10, 11]: 80; Velvetleaf plant response rating [10, 12]: 100; Plant response rating, Velvetleaf [10, 13]: 30; Plant response rating, Velvetleaf [10, 14]: 80 |
